{"source": "patent US10029078B2", "about": "“Pancreas perfusion apparatus, method for controlling same, and method for pancreas perfusion” (KOSEI ADVANCE CO., LTD., priority 2013, dated 2018)", "origin": "cited, not measured here", "test_system": "unresectable pancreatic cancer", "details": "patients with unresectable pancreatic cancer, systemic chemotherapy"}
{"compound": "Nc1ccn([C@@H]2O[C@H](CO)[C@@H](O)C2(F)F)c(=O)n1", "note": "[gemcitabine]", "values": [{"measurement": "median survival time", "result": "approximately 6 months"}, {"measurement": "response rate", "result": "approximately 10%"}]}
